Experimental data from the METLIN SMRT retention time set (Domingo-Almenara et al. 2019).

Experiment: gradient 5% acetonitrile 3 min, to 50% in 2 min, to 85% in 15 min, held 3 min, 100 µL/min
Conditions: column: Zorbax Extend-C18 2.1 x 50 mm; eluents: water / acetonitrile, 0.1% formic acid
In short: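 Pure standards were run in mixtures of ~100 molecules by HPLC coupled to a quadrupole time-of-flight mass spectrometer. The column was a Zorbax Extend-C18 (2.1 × 50 mm, 1.8 μm) at 100 μL/min, with water and acetonitrile each containing 0.1% formic acid, in positive and negative ionization mode. Dead and dwell volumes were 40 μL and 900 μL. Retention time was taken from computationally picked adduct peaks, each manually inspected, with data collected over 3 months.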

RP-LC retention time | SMILES
832 s | N#Cc1ccc(S(=O)(=O)N2CCC(C(=O)NCC(=O)N3CCCc4ccccc43)CC2)cc1
683 s | COc1ccc(CNC(=O)c2ccc(CN3CC(=O)N4CCCCC4C3=O)cc2)cc1 (configuration not stated)
964 s | C=CCN1C(=O)COc2ccc(-c3csc(NC(=O)C(C)(C)C)n3)cc21
1440 s | Cc1cccc2cc(-c3noc(-c4ccccc4)n3)c(NCCc3ccc(S(N)(=O)=O)cc3)nc12
626 s | COc1cccc(CNC(=O)c2ccc3c(c2)nc2n3CCN(Cc3ccccn3)C2=O)c1
761 s | COc1cc([C@@H]2c3cc4c(cc3[C@H](O)[C@@H](CO)[C@@H]2C(=O)Nc2cccc(F)c2)OCO4)cc(OC)c1OC
638 s | Cc1c(-c2cccc(NC(=O)c3cccs3)c2)nc2ncccn12
956 s | O=C1CC(c2noc(CCc3ccccc3)n2)CN1c1ccccc1 (configuration not stated)
742 s | CC1CCCN(c2ccn3c(=O)n(CC(=O)N(C)c4ccccc4)nc3n2)C1 (configuration not stated)
663 s | CC(=O)Nc1ccc(NC(=O)c2ccc(-c3ccnc(N4CCCC4)n3)cc2)cc1
781 s | COc1ccccc1CCC(=O)Nc1cc(-c2cccnc2)no1
606 s | CCN(CC)C(=O)C1Cn2cccc2C(=O)N1C (configuration not stated)
816 s | Cc1ccc(NC(=O)C2(C)Oc3cccnc3N(C)C2=O)c(C)c1 (configuration not stated)
638 s | COCCCNC(=O)C1CC(=O)N(c2n[nH]c3cccc(F)c23)C1 (configuration not stated)
819 s | CCC(C)NC(=O)c1cn(CCOC)cc2c(=O)n(-c3ccccc3)nc1-2 (configuration not stated)
840 s | CCN1c2cc(Cl)ccc2C(=O)NC12CCN(C(=O)NCc1ccc(F)cc1)CC2
823 s | Cn1cnc(S(=O)(=O)N2CCC(C(=O)N3CCN(c4cccc(C(F)(F)F)c4)CC3)CC2)c1
764 s | CCOC(=O)c1cnc2nc(C)ccc2c1Nc1cccc(Cl)c1F
657 s | COCCN1C(=O)CCC2(CNC(=O)c3cnccn3)CCCC=C12 (configuration not stated)
836 s | CC(=O)C1=C(O)C(=O)N(C(C)c2ccccc2)C1c1ccccc1 (configuration not stated)
1040 s | CCCC(=O)N1CCc2c([nH]c3ccc(OC)cc23)C1c1ccc(F)cc1 (configuration not stated)
933 s | Cc1ccc2[nH]cc(CCNC(=O)C3CCN(S(=O)(=O)c4ccc5c(ccn5C)c4)CC3)c2c1
754 s | COc1cc2c(CCNC(C)=O)c[nH]c2cc1Cl

RP-LC retention time | SMILES
566 s | O=C(c1csc(-c2ccc(N3CCCC3)nc2)n1)N1CCN(c2ccccn2)CC1
719 s | CC(C)(C)c1ccc(NC(=O)CSc2ncn[nH]2)cc1
761 s | COc1ccc(C)cc1NC(=O)N1CCN(Cc2nc3cc(C)ccc3o2)CC1
683 s | Cc1noc(-c2ccnc(-n3cnc(C(=O)NCCc4ccc(Cl)cc4)c3)c2)n1
909 s | O=C(NCc1ccc(F)c(Cl)c1)c1ccc(NC(=O)C2CCC2)cc1N1CCOCC1
673 s | CCOc1ccccc1C(=O)N1CCN(c2nnc(SCC(=O)NC(C)C)s2)CC1
728 s | CCn1cc(C(=O)N[C@@H](Cc2ccccc2)C(=O)O)c(=O)c2cc3c(cc21)OCO3
640 s | O=C(Cn1ncc2c(N3CCN(c4ccccn4)CC3)ncnc21)Nc1ccc(Cl)cc1F
1110 s | CC(C)c1ccc(S(=O)(=O)N2CCc3c(c(-c4nnc(-c5ccccc5)o4)nn3C)C2)cc1
700 s | CC(NC(=O)CCc1c(-c2ccc(Cl)cc2)nc2ccccn12)c1ccccc1 (configuration not stated)
777 s | CC(=O)NC(C)c1nc(-c2ccc(Cl)cc2)no1 (configuration not stated)
1010 s | Cc1ccc(CNC(=O)c2nc3cccnc3n(CC(C)C)c2=O)cc1C
947 s | Cc1nc2cccnc2n1C1CCN(C(=O)Nc2cccc(F)c2)CC1
582 s | CCOc1ccc(N2C(=O)Nc3ccccc3C2(O)C(=O)NCCCN2CCC(C)CC2)cc1 (configuration not stated)
732 s | COC(=O)c1c(C)[nH]c(C(=O)N2CCCC(C(=O)NCc3ccccc3)C2)c1C (configuration not stated)
931 s | Cc1nc2ccn(Cc3cccs3)c(=O)c2cc1C(=O)NCCC1=CCCCC1
691 s | O=C(NC1CC1)c1nnn(-c2ccccc2)c1-c1cccnc1
929 s | CSc1cccc(NC(=O)NC2CCN(c3ccc(C)c(C)c3)C2=O)c1 (configuration not stated)
860 s | Cc1ccc(F)cc1NC(=O)Cn1nc(N(C)C)c2ccccc2c1=O
561 s | CCN1CCN(CCNC(=O)C2CCN(Cc3cn(C)c4ccc(Cl)cc34)CC2)CC1
637 s | COc1ccc(Cl)cc1NC(=O)NCCc1ccc(N(C)C)cc1
824 s | CCCC(=O)Nc1cc2c(cc1S(=O)(=O)c1ccc(C)cc1)n(C)c(=O)n2C

The next lines start with the compound.

SMILES | RP-LC retention time
Cc1nn2c(CNS(=O)(=O)c3ccc(F)cc3F)c(-c3ccccc3)nc2s1 | 867 s
COc1ccc(NC(=O)CCc2c(C)nn(-c3cc(N(C)C)ncn3)c2C)c(OC)c1 | 776 s
Cc1ccccc1NC(=O)N1CCC2(C1)C(=O)N(C)c1ccccc12 (configuration not stated) | 772 s
O=C(Cn1c(=O)nc(-c2ccccc2)c2ccccc21)N1CCN(c2ccccn2)CC1 | 609 s
Cc1nc(-c2nc(-c3cccs3)cs2)cn1CC(=O)Nc1cccc(F)c1 | 814 s
COc1ccc(C2Cn3nnc(-c4nc(-c5ccc(OC(F)(F)F)cc5)no4)c3CO2)cc1 (configuration not stated) | 1240 s
COC(=O)C(Cc1ccccc1)NC(=O)N1CCCn2nc(-c3cccs3)cc2C1 (configuration not stated) | 841 s
O=C(Nc1nc(-c2ccccc2)cs1)C1Cc2ccccc2CN1S(=O)(=O)c1cccs1 (configuration not stated) | 1160 s
Cc1ccc(CNC(=O)c2cn3cccc(C)c3n2)cc1 | 686 s
COc1ccc(-c2n[nH]c3c2C(c2ccc(O)c(OC)c2)NC3=O)cc1 (configuration not stated) | 639 s
O=S(=O)(NCc1nc(-c2ccc(-c3csc(C4CC4)n3)cc2)no1)c1ccc(F)cc1 | 1080 s
Cc1cccc(OCc2nc(-c3ccc(NS(C)(=O)=O)cc3)no2)c1 | 801 s
CCc1nc2cc(-c3noc(-c4cc(F)ccc4Cl)n3)ccc2o1 | 1270 s
CCN1c2ccccc2C(=O)NC12CCN(C(=O)Cc1ccccc1C)CC2 | 849 s
CC(=O)NCCCCCCNC(C)=O | 604 s
CN(C)C(=O)c1ccc2c(c1)N(CC(=O)Nc1ccc(F)cc1)C(=O)CO2 | 654 s
Cc1cc2c(OCC(CNC(C)(C)C)OC(=O)c3ccccc3)cccc2[nH]1 (configuration not stated) | 799 s
O=S(=O)(NCc1ccc(F)cc1)c1ccccc1-c1nc(-c2ccc(F)cc2)no1 | 1180 s
O=C1C(Cl)=C(NCCc2ccccc2)C(=O)c2ccccc21 | 1190 s
CCn1nc(C)c(S(=O)(=O)N2CCN(C(=O)C(C)Oc3cccc(Cl)c3)CC2)c1C (configuration not stated) | 850 s
FC(F)(F)c1cccc(CSc2ccc(-n3ccnc3)nn2)c1 | 671 s

SMILES | RP-LC retention time
CC(C)Oc1ccc(-c2noc(CN3N=NC4C(=O)N(c5ccc(C(C)C)cc5)C(=O)C43)n2)cc1 (configuration not stated) | 1180 s
CC(C)C(NC(=O)c1ccc(CN2C(=O)C3CCCN3C(=O)c3ccccc32)cc1)c1cccs1 (configuration not stated) | 857 s
O=C(c1ccco1)N1CCC[C@H]1c1nc(-c2ccccc2)n[nH]1 | 652 s
CCc1ccc(-c2noc(CN3C(=O)COc4ccc(S(=O)(=O)CC)cc43)n2)cc1 | 1000 s
O=c1c2sccc2n(Cc2nc(-c3ccc(C(F)(F)F)cc3)no2)c(=O)n1-c1ccc(F)cc1 | 1080 s
COc1ccc2c(c1)C1(CCN(C(=O)c3cccc(F)c3)C1)C(=O)N2C (configuration not stated) | 782 s
O=C(Nc1ccc(C2(C(=O)N3CCN(c4ccc(F)cc4)CC3)CCC2)cc1)C1CC1 | 922 s
CCOC(=O)Cn1c(C2CC(=O)N(c3ccc(Cl)cc3)C2)nc2ccccc21 (configuration not stated) | 858 s
Cc1ccccc1NC(=O)N1CC(Cc2nncn2C(C)C)C1 | 616 s
Cc1ccc(-c2nc(CN3CCSCC3)c(C)o2)cc1 | 680 s
COc1ccc(OC)c(Nc2nc(N(C)C)nc3c2cnn3-c2ccccc2)c1 | 1380 s
Cn1ncc2c3ccccc3n(CCCC(=O)NCCCN3CCOCC3)c2c1=O | 593 s
COc1ccc(N2CCN(c3cc(SCC(=O)Nc4cccc(SC)c4)ncn3)CC2)cc1 | 1000 s
CC(C)(C)c1cc(C(=O)Nc2cccc(C#N)c2)nc2ccnn12 | 1170 s
Cc1ccc(-c2nc(N)n(C(=O)c3ccc(C(C)(C)C)cc3)n2)cc1C | 1350 s
CN(CC1(C)CCOCC1)S(=O)(=O)c1cc(F)ccc1F | 614 s
O=C(NCCc1ccccc1)C1CCN(C(=O)c2ncn3c2COC(c2ccccc2)C3)CC1 (configuration not stated) | 708 s
COc1ccc(-c2nc(N(Cc3ccco3)C3CCCCC3)c3ccccc3n2)cc1 | 1030 s
COCCN1C(=O)[C@H]2CN(Cc3ccccc3OC(F)(F)F)C[C@H]2C1=O | 743 s
Cc1nc(-c2csc(S(=O)(=O)N3CCCC(C(=O)Nc4cccc(C)c4C)C3)c2)no1 (configuration not stated) | 951 s
O=C(Nc1ccc2nc3n(c(=O)c2c1)CCCC3)Nc1ccc(Br)cc1F | 782 s
